Assay results from patent US11299762B2, “Nanoscale motion detector” (Ecole Polytechnique Fédérale de Lausanne (EPFL), priority 2011, dated 2022).
Each block holds one compound with its values, some of them ahead of it.

What was measured:
human Topoisomerase II = assay: TopoII adsorbed on AFM cantilever, fluctuation recording (drug affinity detection); format: biochemical
Source text: This enzyme requires ATP to modify its 3D conformation and to act on DNA. TopoII is also the preferred target of numerous anticancerous drugs such as aclarubicin. This drug binds to TopoII, freezes its conformation and inhibits its action (15). In the first experiment, TopoII was adsorbed onto both sides of a cantilever. It was than introduced in the analysis chamber of an AFM and its laser beam was collimated on the apex of the cantilever. The reflection of the laser beam, sent to a split photo-detector, allowed detecting the fluctuations of the cantilever as depicted in FIG. 1 and, more in detail, FIG. 3,
The experiment consisted in injecting successively an ATP depleted buffer, an ATP enriched solution and an aclarubicin+ATP rich media in the analysis chamber and by recording the resulting fluctuations of the cantilever.
This experiment was performed using an APTES-coated AFM cantilever. The different buffers injected during experiment are: buffer (50 mM Tris-HCl (pH 8.0), 150 mM NaCl, 10 mM MgCl2, and 0.5 mM dithiothreitol), 0.02 mM ATP and 0.02 mM ATP plus 100 μM aclarubicin.
The media used in this experiment are: buffer (50 mM Tris-HCl (pH 8.0), 150 mM NaCl, 10 mM MgCl2 and 0.5 mM dithiothreitol.), 0.02 mM ATP, 0.2 mM ATP, 2 mM ATP and again buffer.

[1] = tested on: TopoII-supercoiled DNA complexes; assay: TopoII-supercoiled DNA complexes on AFM cantilever, fluctuation recording; format: biochemical, human; conditions: 0.02 mM ATP, compared to ATP free buffer or AMPPMP solution
Experimental: As mentioned previously, TopoII interacts with DNA to simplify its topology. To record this reaction with our method we deposited TopoII-supercoiled DNA complexes on both sides of an AFM cantilever, as depicted in FIG. 6.
The experiment was performed using an APTES-coated AFM cantilever. The different media injected during experiment are: buffer (50 mM Tris-HCl (pH 8.0), 150 mM NaCl, 10 mM MgCl2 and 0.5 mM dithiothreitol), 0.02 mM. AMPPNP (an ATP analogue) and 0.02 mM ATP. […] Panel B depicts the experimental set-up to follow TopoII-DNA interactions. a) DNA molecule, b) TopoII, c) AFM cantilever, d) laser beam. Panel C evidences the differences in terms of the variance.
Here again the cantilever covered with TopoII-supercoiled DNA complexes was inserted in the analysis chamber and exposed to several consecutive liquid environments: 1) ATP free solution, 2) buffer containing a non functional ATP substitute, referred to as AMPPMP 3) ATP enriched medium. AMPPMP is a non-hydrolysable ATP analogue which inhibits TopoII activity.

Escherichia coli = assay: Antibiotic sensitivity detection, bacteria adsorbed on cantilever; format: cell-based; conditions: FIG. 8
Source text: Motile bacteria (Escherichia coli), resistant to kanamycin but sensitive to ampicillin, were adsorbed to both sides of a cantilever. The bacteria were successively exposed to both antibiotics to determine the impact on the bacterial motion/viability (see FIG. 7).
In these experiments the cantilever was introduced in the analysis chamber and exposed to a solution containing bacteria that eventually attached to its surface. The system was then exposed to: 1) nutriment depleted buffer, 2) nutriment solution (Lysogeny broth (LB)), 3) kanamycin-enriched LB solution 4) LB solution 5) ampicillins-enriched LB solution and, finally, 6) LB solution.
The experiment was performed using an APTES-coated AFM cantilever. The different phases of the experiment are depicted: PBS, bacteria in PBS, bacteria in LB, exposure to kanamycin, washing with LB, exposure to ampicillin, washing with LB.

Staphylococcus aureus = assay: Antibiotic sensitivity detection, non-motile bacteria on cantilever; format: cell-based; conditions: exposure to ampicillin in LB; FIG. 10
Source text: Later on, similar experiments were repeated using non-motile bacteria (Staphylococcus aureus) susceptible to ampicillin. […] The results of the cantilever motion RMS are depicted in FIG. 10. In this experiment an APTES-coated AFM cantilever was used. The different phases of the experiment are depicted: PBS, bacteria in PBS, bacteria in LB and exposure to ampicillin.

variance of the cantilever fluctuations (human Topoisomerase II; 0.02 mM ATP, compared to ATP depleted buffer or aclarubicin, FIG. 4): significantly higher | conformational changes induced on TopoII (cantilever fluctuation variance) (human Topoisomerase II; 0.02 mM, 0.2 mM, 2 mM ATP, FIG. 5): dependent on its concentration
SMILES: Nc1ncnc2c1ncn2[C@@H]1O[C@H](COP(=O)(O)OP(=O)(O)OP(=O)(O)O)[C@@H](O)[C@H]1O [ATP]
cantilever fluctuation variance [1]: significant increase

SMILES: CC[C@@]1(O)C[C@H](O[C@H]2C[C@H](N(C)C)[C@H](O[C@H]3C[C@H](O)[C@H](O[C@H]4CCC(=O)[C@H](C)O4)[C@H](C)O3)[C@H](C)O2)c2c(cc3c(c2O)C(=O)c2c(O)cccc2C3=O)[C@H]1C(=O)OC [aclarubicin]
TopoII conformational state (cantilever fluctuation) (human Topoisomerase II; 0.02 mM ATP plus 100 μM aclarubicin, FIG. 4): again in equilibrium

SMILES: CC1(C)S[C@@H]2[C@H](NC(=O)[C@H](N)c3ccccc3)C(=O)N2[C@H]1C(=O)O [ampicillin]
bacterial motion (cantilever fluctuations) (Escherichia coli; antibiotic-enriched LB solution, E. coli resistant to kanamycin, sensitive to ampicillin): dramatically decreased | bacterial motion after washing with LB solution (Escherichia coli; step 6, LB solution after ampicillin exposure): remained at the same value | internal movements of bacteria (cantilever motion) (Staphylococcus aureus): decreased dramatically
